According to patent US8470829B2 (priority 2004, dated 2013):
Like-named read-outs stand apart in the source and are kept apart here.

Key:
human androgen receptor [1] = biological target: T1, human androgen receptor (Homo sapiens, UniProt P10275); experiment: Measurement of agonist effect on androgen receptor (reporter gene assay, 11A11B2 cells); assay type: cell-based; conditions: compound concentration showing a transcription activity of 5% (0.1 nmol/L DHT = 100%, assay medium alone = 0%), 48 hours
T1 construct: expressed in transfected cells
T1 sequence (P10275 1-920): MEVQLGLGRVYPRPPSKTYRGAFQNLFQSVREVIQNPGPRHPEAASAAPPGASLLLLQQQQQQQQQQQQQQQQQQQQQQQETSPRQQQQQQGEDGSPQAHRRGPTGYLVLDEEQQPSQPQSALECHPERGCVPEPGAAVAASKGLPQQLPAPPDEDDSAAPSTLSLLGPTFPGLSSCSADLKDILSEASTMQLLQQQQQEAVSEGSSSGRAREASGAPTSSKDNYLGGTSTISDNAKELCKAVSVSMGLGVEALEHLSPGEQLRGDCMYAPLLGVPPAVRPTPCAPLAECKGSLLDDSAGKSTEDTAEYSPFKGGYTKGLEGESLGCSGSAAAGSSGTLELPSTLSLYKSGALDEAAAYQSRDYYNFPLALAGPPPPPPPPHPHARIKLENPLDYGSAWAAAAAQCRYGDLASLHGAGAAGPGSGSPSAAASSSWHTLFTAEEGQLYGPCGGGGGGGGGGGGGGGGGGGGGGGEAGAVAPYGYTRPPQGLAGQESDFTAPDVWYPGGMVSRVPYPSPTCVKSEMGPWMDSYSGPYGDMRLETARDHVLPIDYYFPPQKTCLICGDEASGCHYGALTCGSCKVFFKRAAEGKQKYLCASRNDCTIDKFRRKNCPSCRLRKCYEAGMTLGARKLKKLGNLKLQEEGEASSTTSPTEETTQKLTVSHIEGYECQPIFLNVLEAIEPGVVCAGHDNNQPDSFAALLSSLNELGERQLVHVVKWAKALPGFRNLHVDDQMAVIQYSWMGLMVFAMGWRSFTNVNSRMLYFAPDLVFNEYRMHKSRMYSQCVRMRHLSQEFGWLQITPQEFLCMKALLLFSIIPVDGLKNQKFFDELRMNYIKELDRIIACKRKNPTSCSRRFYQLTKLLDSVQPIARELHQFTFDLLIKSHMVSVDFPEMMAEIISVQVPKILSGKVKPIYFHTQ
Procedure: (§1) HeLa cells (purchased from Dai-Nippon Seiyaku K. K.) were cultured overnight in Dulbecco's Modified Eagle Medium containing no phenol red, but containing 3% charcoal-treated fetal bovine serum (hereafter referred to as DCC-FBS) (this medium is hereafter referred to as phenol-red-free DMEM). An MMTV-Luc-Hyg vector (reporter plasmid with mouse mammary tumor virus long terminal repeat, containing an androgen response element and a hygromycin resistance gene: a vector obtained by substituting a chloramphenicol acetyl transferease gene of a GM-CAT vector (A.T.C.C No. 67282) purchased from the A.T.C.C. with the firefly luciferase gene, and inserting a hygromycin resistance gene as a drug resistant gene), and pSG5-hAR-neo (human androgen receptor expression vector: a vector having an androgen receptor gene under the control of the SV40 promoter, and having a neomycin resistance gene inserted as a drug resistance gene) were transfected into the HeLa cells using an FuGENE™ 6 Transfection Reagent (obtained from Roche).
(§2) The clone cells thus obtained (11A11B2 cells) were maintained and propagated using DMEM containing 400 μg/mL neomycin, 200 μg/mL hygromycin and 10% FBS, and were propagated using phenol-red-free DMEM containing 10% DCC-FBS three to four days prior to the performance of an androgen receptor reporter gene assay.
The 11A11B2 cells were inoculated in a white clear-bottomed 96-well microplate (COSTAR) so that the cell concentration was 1.0×10^4/well, and were cultured overnight using phenol-red-free DMEM containing 3% DCC-FBS (hereafter referred to as the assay medium). Samples of the assay medium containing the compounds of the Examples and compounds of the Comparative Examples were added so that the final concentrations of the compounds of the Examples and compounds of the Comparative Examples were 1, 10, 100, 1,000 and 10,000 nmol/L), and the cells were cultured for 48 hours, after which the transcription activity value was measured. The transcription activity was measured using a Bright-Glo™ Luciferase Assay System (Promega).
The transcription activity rates of the compounds of the Examples were calculated from the transcription activity measured by the abovementioned method, with the transcription activity value obtained at 0.1 nmol/L DHT taken as 100%, and the transcription activity value in the case of the assay medium alone taken as 0%. The compound concentration showing a transcription activity of 5% (EC5 value) was calculated from a linear equation for two points on either side of 5%.

human androgen receptor [2] = biological target: T1, human androgen receptor; experiment: Investigation of antagonist effect on androgen receptor (reporter gene assay, 11A11B2 cells, with DHT); assay type: cell-based
Procedure: as §1, §2
The 11A11B2 cells were inoculated in a white clear-bottomed 96-well microplate (COSTAR) so that the cell concentration was 1.0×10^4/well, and were cultured overnight. The assay medium containing DHT was added so that the final concentration of DHT was 0.1 nmol/L, and samples of the assay medium containing the compounds of the Examples or compounds of the Comparative Examples were added so that the final concentrations of the compounds of the Examples or compounds of the Comparative Examples were 1, 10, 100, 1,000 and 10,000 nmol/L, respectively. After culturing for 48, hours, the transcription activity values were measured. The transcription activity was measured using a Bright-Glo™ Luciferase Assay System (Promega).
The transcription activity rates of the compounds of the Examples were calculated from the transcription activity measured by the abovementioned method, with the transcription activity value obtained at 0.1 nmol/L DHT taken as 100%, and the transcription activity value in the case of the assay, medium alone taken as 0%.

[3] = with 0.1 nmol/L DHT, transcription activity rate of Test Example 1 subtracted, 11A11B2 cells, 48 hours, read-out: IC50

CC(=O)Nc1cc(N2C(=S)N(c3ccc(C#N)c(C(F)(F)F)c3)C(=O)C2(C)C)ccc1Cl [Example 22, 4-[3-(3-acetylamino-4-chlorophenyl)-4,4-dimethyl-5-oxo-2-thioxoimidazolidin-1-yl]-2-trifluoromethylbenzonitrile]
EC5 (human androgen receptor [1]): >10 µM
IC50 (human androgen receptor [2]; [3]): 200 nM

CCOC(=O)Nc1cc(N2C(=O)N(c3ccc(C#N)c(OC)c3)C(=O)C2(C)C)ccc1Cl [Example 24, 4-[3-(3-ethoxycarbonylamino-4-chlorophenyl)-4,4-dimethyl-2,5-dioxoimidazolidin-1-yl]-2-methoxybenzonitrile]
EC5 (human androgen receptor [1]): >10 µM
IC50 (human androgen receptor [2]; [3]): 200 nM

CN(C)CCNC(=O)Nc1nc2cc(N3C(=S)N(c4ccc(C#N)c(Cl)c4)C(=O)C3(C)C)ccc2s1 [Example 61, 1-{5-[3-(3-chloro-4-cyanophenyl)-5,5-dimethyl-4-oxo-2-thioxoimidazolidin-1-yl]benzothiazol-2-yl}-3-(2-dimethylaminoethyl)urea]
EC5 (human androgen receptor [1]): >10 µM
IC50 (human androgen receptor [2]): 300 nM

CN(C)CCOC(=O)Nc1cc(N2C(=O)N(c3ccc(C#N)c(C(F)(F)F)c3)C(=O)C2(C)C)ccc1Cl [Example 28, {2-chloro-5-[3-(4-cyano-3-trifluoromethylphenyl)-5,5-dimethyl-2,4-dioxoimidazolidin-1-yl]phenyl}-carbamic acid 2-dimethylaminoethyl ester]
EC5 (human androgen receptor [1]): >10 µM
IC50 (human androgen receptor [2]; [3]): 500 nM

CN(C)CCOC(=O)Nc1cc(N2C(=O)N(c3ccc(C#N)c(Cl)c3)C(=O)C2(C)C)ccc1Cl [Example 31, {2-chloro-5-[3-(4-cyano-3-chlorophenyl)-5,5-dimethyl-2,4-dioxoimidazolidin-1-yl]phenyl}-carbamic acid 2-dimethylaminoethyl ester]
EC5 (human androgen receptor [1]): >10 µM
IC50 (human androgen receptor [2]): 600 nM

CCS(=O)(=O)N1CCC(N2C(=S)N(c3ccc(C#N)c(C(F)(F)F)c3)C(=O)C2(C)C)CC1 [Example 5, 4-[3-(1-ethanesulfonylpiperidin-4-yl)-4,4-dimethyl-5-oxo-2-thioxoimidazolidin-1-yl]-2-trifluoromethylbenzonitrile]
EC5 (human androgen receptor [1]): >10 µM
IC50 (human androgen receptor [2]): 300 nM

CCC(=O)N1CCC(N2C(=S)N(c3ccc(C#N)c(Cl)c3)C(=O)C2(C)C)CC1 [Example 7, 4-[3-(1-propionylpiperidin-4-yl)-4,4-dimethyl-5-oxo-2-thioxoimidazolidin-1-yl]-2-chlorobenzonitrile]
EC5 (human androgen receptor [1]): >10 µM
IC50 (human androgen receptor [2]): 300 nM

CN(C)CCOC(=O)Nc1ccc(N2C(=S)N(c3ccc(C#N)c(Cl)c3)C(=O)C2(C)C)cn1 [Example 69, {5-[3-(3-chloro-4-cyanophenyl)-5,5-dimethyl-4-oxo-2-thioxoimidazolidin-1-yl]pyridin-2-yl}-carbamic acid 2-dimethylaminoethyl ester]
EC5 (human androgen receptor [1]): >10 µM
IC50 (human androgen receptor [2]): 500 nM

CC1(C)C(=O)N(c2ccc(C#N)c(C(F)(F)F)c2)C(=S)N1c1ccc(S(N)(=O)=O)cc1 [Example 56, 4-[3-(4-cyano-3-trifluoromethylphenyl)-5,5-dimethyl-4-oxo-2-thioxoimidazolidin-1-yl]benzenesulfonamide]
EC5 (human androgen receptor [1]): >10 µM
IC50 (human androgen receptor [2]; [3]): 400 nM

CN(C)CCOC(=O)N1CCC(N2C(=S)N(c3ccc(C#N)c(C(F)(F)F)c3)C(=O)C2(C)C)CC1 [Example 36]
EC5 (human androgen receptor [1]): >10 µM
IC50 (human androgen receptor [2]): 500 nM

COc1cc(N2C(=O)C(C)(C)N(c3ccc4sc(NC(N)=O)nc4c3)C2=S)ccc1C#N [Example 19, {5-[3-(4-cyano-3-methoxyphenyl)-5,5-dimethyl-4-oxo-2-thioxoimidazolidin-1-yl]-benzothiazol-2-yl}urea]
EC5 (human androgen receptor [1]): >10 µM
IC50 (human androgen receptor [2]; [3]): 200 nM

CC1(C)C(=O)N(c2ccc(C#N)c(Cl)c2)C(=S)N1c1ccc2sc(NC(=O)NCCO)nc2c1 [Example 63, 1-{5-[3-(3-chloro-4-cyanophenyl)-5,5-dimethyl-4-oxo-2-thioxoimidazolidin-1-yl]benzothiazol-2-yl}-3-(2-hydroxyethyl)urea]
EC5 (human androgen receptor [1]): >10 µM
IC50 (human androgen receptor [2]): 300 nM

CC1(C)C(=O)N(c2ccc(C#N)c(Cl)c2)C(=S)N1c1ccc2sc(NC(=O)OCCO)nc2c1 [Example 66, {5-[3-(3-chloro-4-cyanophenyl)-5,5-dimethyl-4-oxo-2-thioxoimidazolidin-1-yl]benzothiazol-2-yl}carbamic acid 2-hydroxyethyl ester]
EC5 (human androgen receptor [1]): 6 µM
IC50 (human androgen receptor [2]): 100 nM

COc1cc(N2C(=O)N(c3ccc(Cl)c(NC(=O)OC(C)C)c3)C(C)(C)C2=O)ccc1C#N [Example 25, 4-[3-(3-isopropoxycarbonylamino-4-chlorophenyl)-4,4-dimethyl-2,5-dioxoimidazolidin-1-yl]-2-methoxybenzonitrile]
EC5 (human androgen receptor [1]): >10 µM
IC50 (human androgen receptor [2]; [3]): 400 nM

CC1(C)C(=O)N(c2ccc(C#N)c(C(F)(F)F)c2)C(=S)N1c1ccc(NC(=O)OCC(O)CO)nc1 (centres unmarked) [Example 70, {5-[3-(4-cyano-3-trifluoromethylphenyl)-5,5-dimethyl-4-oxo-2-thioxoimidazolidin-1-yl]pyridin-2-yl}-carbamic acid 2,3-dihydroxypropyl ester]
EC5 (human androgen receptor [1]): >10 µM
IC50 (human androgen receptor [2]): 500 nM

CC(C)OC(=O)Nc1cc(N2C(=O)N(c3ccc(C#N)c(C(F)(F)F)c3)C(=O)C2(C)C)ccc1Cl [Example 23, 4-[3-(3-isopropoxycarbonylamino-4-chlorophenyl)-4,4-dimethyl-2,5-dioxoimidazolidin-1-yl]-2-trifluoromethylbenzonitrile]
EC5 (human androgen receptor [1]): >10 µM
IC50 (human androgen receptor [2]; [3]): 500 nM

CC1(C)C(=O)N(c2ccc(C#N)c(Cl)c2)C(=S)N1c1ccc2sc(NC(=O)OCC(O)CO)nc2c1 (centres unmarked) [Example 65, {5-[3-(3-chloro-4-cyanophenyl)-5,5-dimethyl-4-oxo-2-thioxoimidazolidin-1-yl]benzothiazol-2-yl}carbamic acid 2,3-dihydroxypropyl ester]
EC5 (human androgen receptor [1]): >10 µM
IC50 (human androgen receptor [2]; [3]): 200 nM

CCCNC(=O)N1CCC(N2C(=S)N(c3ccc(C#N)c(C(F)(F)F)c3)C(=O)C2(C)C)CC1 [Example 39, 4-[3-(1-n-propylaminocarbonylpiperidin-4-yl)-4,4-dimethyl-5-oxo-2-thioxoimidazolidin-1-yl]-2-trifluoromethylbenzonitrile]
EC5 (human androgen receptor [1]): >10 µM
IC50 (human androgen receptor [2]; [3]): 900 nM

CC1(C)C(=O)N(c2ccc(C#N)c(Cl)c2)C(=S)N1c1ccc2sc(NC(N)=O)nc2c1 [Example 20, {5-[3-(4-cyano-3-chlorophenyl)-5,5-dimethyl-4-oxo-2-thioxoimidazolidin-1-yl]-benzothiazol-2-yl}urea]
EC5 (human androgen receptor [1]): >10 µM
IC50 (human androgen receptor [2]): 100 nM
